Measurements reported in patent publication US20040076974A1, “Liver necrosis predictive genes” (priority 2002, published 2004).
“And” between values parts separate entries of the source, which are not always exact repeats. Equal entries are not always repeated. Where two headings read alike, the source gives them in different places.

Tests used:
[1] = test system: toxicologically relevant rat genes (rat CT array); details: rat, in vivo
Sprague Dawley rats = details: rat, in vivo; for Score (histopathology liver necrosis severity score) / Liver Necrosis: ip
Procedure, shortened: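 Toxicity calls (necrosis present or absent at 72 h) and histopathology scores were correlated with tissue gene expression from Crl:CD Sprague Dawley rats. Animals, usually 3 treated with compound by i.p. route and 3 given vehicle, were killed at 6, 24 or 72 h and tissues frozen immediately in liquid nitrogen.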

Male Sprague-Dawley rats = type: in vivo, rat; details: intraperitoneal injection, 200 mg/kg

CC/C(=C(\c1ccccc1)c1ccc(OCCN(C)C)cc1)c1ccccc1 [tamoxifen]
14-3-3 zeta expression [1]: 1.06 and 1.114 and 1.024 and 1.069 and 1.078
60S ribosomal protein L6 expression [1]: 1.136 and 1.258 and 1.391 (2×) and 1.1
Adenine nucleotide translocator 1 expression [1]: 0.8038 and 0.8428 and 1.025 and 0.963 and 1.349
Alpha-1 microglobulin/bikunin precursor (Ambp) expression [1]: 1.137 and 1.13 and 1.288 and 1.072 and 1.505
Alpha-tubulin expression [1]: 0.9413 and 0.9605 and 0.9619 and 0.9049 and 1.355
Aquaporin-3 (AQP3) expression [1]: 0.9813 and 0.7741 and 0.9894 and 0.9996 and 0.8864
Beta-actin expression [1]: 0.7738 and 0.942 and 0.6998 and 1.204
Beta-actin, sequence 2 expression [1]: 0.7894 and 1.034 and 1.023 and 0.5893
Beta-tubulin, class I expression [1]: 0.7904 and 0.7769 and 1.118 and 1.041 and 1.416
Biliverdin reductase expression [1]: 1.244 and 1.177 and 0.9432 and 0.9712
CDK108 expression [1]: 0.7646 and 0.771 and 0.9296 and 1.067 and 0.6341
Calpactin I heavy chain expression [1]: 1.24 and 0.9779 and 0.9969 and 0.9558 and 1.503
Calpain 2 expression [1]: 1.074 and 1.028 and 1.069
Cathepsin B expression [1]: 1.062 and 1.634 and 1.119 and 0.9643 and 1.263
Cathepsin L, sequence 2 expression [1]: 0.793 and 1.456 and 0.963 and 0.9594
Cathepsin S expression [1]: 0.8837 and 1.721 and 1.401
Cyclin D1 expression [1]: 0.9348 and 0.6137 and 1.116 and 1.1 and 0.745
Cystatin C expression [1]: 0.7987 and 0.8206 and 1.149 and 1.058 and 1.138
Dynamin-1 (D100) expression [1]: 0.974 and 0.8723 and 0.9822 and 1.024 and 0.9733
Elongation factor-1 alpha expression [1]: 1.144 and 1.188 and 1.098 and 0.9078 and 1.206
Equilbrative nitrobenzylthioinosine-sensitive nucleoside transporter expression [1]: 1.073 and 0.9454 and 0.9032 and 1.004 and 0.9505
F1-ATPase beta subunit expression [1]: 0.7234 and 0.6975 and 0.9473 and 0.9602 and 1.189
Gamma-actin, cytoplasmic expression [1]: 0.982 and 0.9804 and 1.031 and 1.54
Glutathione S-transferase theta-1 expression [1]: 0.8059 and 0.9415 and 0.8757 and 1.133
High affinity IgE receptor gamma chain (FcERIgamma) expression [1]: 0.9724 and 1.018 and 1.021 and 1.327
Hypoxanthine-guanine phosphoribosyltransferase expression [1]: 0.7468 and 0.8598 and 0.8651 and 0.806 and 0.9251
IgE binding protein expression [1]: 1.306 and 1.678 and 1.071 and 1.114 and 1.302
JNK1 stress activated protein kinase expression [1]: 0.666 and 0.9165 and 0.9272 and 0.962 and 0.7174
Melanoma-associated antigen ME491 expression [1]: 1.025 and 1.238 and 1.062 and 1.098 and 1.559
Multidrug resistant protein-1 expression [1]: 1.082 and 1.58 and 1.118 and 1.184 and 0.9501
Multidrug resistant protein-2 expression [1]: 0.8809 and 1.298 and 1.165 and 1.156 and 0.7835
N-hydroxy-2-acetylaminofluorene sulfotransferase (ST1C1) expression [1]: 1.02 and 0.9797 and 0.9522 and 1.016
NADP-dependent isocitrate dehydrogenase, cytosolic expression [1]: 0.865 and 1.545
NIPK expression [1]: 1.08 and 1.011 and 0.9454 and 0.9651
Organic cation transporter 3 expression [1]: 0.8883 and 1.096 and 1.263
Ornithine decarboxylase expression [1]: 0.8334 and 1.039 and 1.055 and 1.097 and 1.469
Osteoactivin expression [1]: 1.459 and 1.435 and 0.9157 and 0.9271 and 1.449
Paraoxonase 1 expression [1]: 0.7398 and 0.6886 and 1.221 and 1.224
Phase-1 RCT-24 expression [1]: 0.8968
Phase-1 RCT-39 expression [1]: 1.47 and 0.9339 and 0.9947
Phase-1 RCT-43 expression [1]: 0.9905 and 0.9704 and 0.9375
Phase-1 RCT-57 expression [1]: 0.8991 and 0.6888
Phase-1 RCT-78 expression [1]: 0.8505 and 0.8237
Phase-1 RCT-81 expression [1]: 1.102
Phase-1 RCT-107 expression [1]: 0.9169 and 0.6899
Phase-1 RCT-109 expression [1]: 0.6916
Phase-1 RCT-117 expression [1]: 0.9421 and 0.9667
Phase-1 RCT-138 expression [1]: 0.9832
Phase-1 RCT-144 expression [1]: 0.8629
Phase-1 RCT-146 expression [1]: 0.9994
Phase-1 RCT-149 expression [1]: 1.1 and 0.8836
Phase-1 RCT-154 expression [1]: 0.8651 and 0.9418 and 0.9917
Phase-1 RCT-156 expression [1]: 1.103
Phase-1 RCT-164 expression [1]: 0.9378 and 0.8318 and 0.9484
Phase-1 RCT-173 expression [1]: 0.7045 and 0.5898
Phase-1 RCT-174 expression [1]: 0.7203 and 0.6816
Phase-1 RCT-179 expression [1]: 1.2 and 0.9105 and 1.544
Phase-1 RCT-192 expression [1]: 0.999
Phase-1 RCT-207 expression [1]: 0.9742
Phase-1 RCT-211 expression [1]: 0.8217 and 0.6431
Phase-1 RCT-213 expression [1]: 0.8004
Phase-1 RCT-227 expression [1]: 0.8538
Phase-1 RCT-260 expression [1]: 0.974 and 0.93
Phase-1 RCT-290 expression [1]: 0.5411 and 0.6526
Poly(ADP-ribose) polymerase expression [1]: 0.8263 and 1.077 and 0.8901 and 0.8489 and 1.291
Pyruvate kinase, muscle expression [1]: 1.141 and 1.584 and 1.146 and 1.081 and 0.8598
Ribosomal protein L13A expression [1]: 1.178 and 0.9908 and 0.8711
Ribosomal protein S8 expression [1]: 1.069 and 1.043 and 1.983 and 1.441
Ribosomal protein S17 expression [1]: 0.9563 and 0.9932 and 1.772 and 1.494
Stathmin expression [1]: 0.8925 and 1.067 and 1.025 and 0.9726 and 0.8514
Thioredoxin-1 (Trx1) expression [1]: 0.9876 and 1.146 and 1.089 and 0.8216 and 0.7283
Thymosin beta-10 expression [1]: 0.8732 and 1.234 and 1.068 and 0.8379
Tissue plasminogen activator expression [1]: 0.8347 and 0.7599 and 0.9719 and 1.009 and 1.011
Transitional endoplasmic reticulum ATPase expression [1]: 0.9168 and 0.8359 and 1.015 and 0.9607 and 1.436
Ubiquitin conjugating enzyme (RAD 6 homologue) expression [1]: 0.9338 and 0.984 and 0.8685 and 0.6936 and 1.384
Uncoupling protein 2 expression [1]: 1.105 and 1.472 and 1.007 and 0.9206
Zinc finger protein expression [1]: 0.8577 and 1.115 and 0.9673 and 0.8957 and 1.145
p55CDC expression [1]: 1.198 and 1.343 and 1.163 and 1.148 and 0.9509
{Phase-1 RCT 98} expression [1]: 0.8993 and 0.665 and 1.028 and 1.025
{Ribosomal protein 16} expression [1]: 1.136 and 1.255 and 1.519
Score (histopathology liver necrosis severity score) (Sprague Dawley rats; Sprague Dawley, 50 mg/kg, 72 h): 1
Score (histopathology liver necrosis severity score) (Sprague Dawley rats; Sprague Dawley, 200 mg/kg, 72 h): 1
Liver Necrosis (Sprague Dawley rats; 50 mg/kg): no
Liver Necrosis (Sprague Dawley rats; 200 mg/kg): no

CN(C)[C@@H]1C(O)=C(C(N)=O)C(=O)[C@@]2(O)C(O)=C3C(=O)c4c(O)cccc4[C@@](C)(O)[C@H]3C[C@@H]12 [tetracycline]
14-3-3 zeta expression [1]: 0.7335
60S ribosomal protein L6 expression [1]: 1.38
Adenine nucleotide translocator 1 expression [1]: 1.332
Alpha-1 microglobulin/bikunin precursor (Ambp) expression [1]: 1.73
Alpha-2-macroglobulin, sequence 2 expression [1]: 1.2
Alpha-2-microglobulin expression [1]: 0.5107
Alpha-prothymosin expression [1]: 1.454
Alpha-tubulin expression [1]: 0.9701
Apolipoprotein AII expression [1]: 0.2962
Apolipoprotein C1 expression [1]: 1.791
Aquaporin-3 (AQP3) expression [1]: 0.9307
Beta-actin expression [1]: 0.78
Beta-actin, sequence 2 expression [1]: 0.5941
Beta-tubulin, class I expression [1]: 0.7321
Betaine homocysteine methyltransferase (BHMT) expression [1]: 0.2575
Biliverdin reductase expression [1]: 0.7455
CDK108 expression [1]: 0.7153
Calpactin I heavy chain expression [1]: 1.165
Calpain 2 expression [1]: 1.216
Cathepsin L, sequence 2 expression [1]: 1.097
Cathepsin S expression [1]: 1.473
Cholesterol esterase expression [1]: 0.955
Cofilin expression [1]: 1.77
Collagen type II expression [1]: 1.355
Cyclin D1 expression [1]: 1.265
Cystatin C expression [1]: 1.57
Cytochrome P450 2A3 expression [1]: 0.8495
Cytochrome P450 2C11 expression [1]: 0.8002
Cytochrome P450 2C23 expression [1]: 1.592
Dynamin-1 (D100) expression [1]: 0.9613
Elongation factor-1 alpha expression [1]: 1.049
Equilbrative nitrobenzylthioinosine-sensitive nucleoside transporter expression [1]: 1.39
F1-ATPase beta subunit expression [1]: 1.072
Fatty acid synthase expression [1]: 0.837
Gamma-actin, cytoplasmic expression [1]: 1.057
Glutathione S-transferase theta-1 expression [1]: 1.085
Glycine methyltransferase expression [1]: 0.5811
Heme oxygenase expression [1]: 1.421
High affinity IgE receptor gamma chain (FcERIgamma) expression [1]: 1.193
Hypoxanthine-guanine phosphoribosyltransferase expression [1]: 0.7473
IgE binding protein expression [1]: 1.055
Insulin-like growth factor I, exon 6 expression [1]: 0.8256
JNK1 stress activated protein kinase expression [1]: 0.6582
Melanoma-associated antigen ME491 expression [1]: 1.77
Multidrug resistant protein-1 expression [1]: 1.041
Multidrug resistant protein-2 expression [1]: 0.8907
N-hydroxy-2-acetylaminofluorene sulfotransferase (ST1C1) expression [1]: 1.531
NADP-dependent isocitrate dehydrogenase, cytosolic expression [1]: 1.608
NIPK expression [1]: 0.7421
Nucleoside diphosphate kinase beta isoform expression [1]: 1.032
Organic cation transporter 3 expression [1]: 1.233
Ornithine decarboxylase expression [1]: 0.9438
Osteoactivin expression [1]: 1.112
Paraoxonase 1 expression [1]: 2.144
Phase-1 RCT-24 expression [1]: 0.8327
Phase-1 RCT-36 expression [1]: 0.8652
Phase-1 RCT-43 expression [1]: 1.003
Phase-1 RCT-58 expression [1]: 1.737
Phase-1 RCT-109 expression [1]: 0.5933
Phase-1 RCT-117 expression [1]: 0.8447
Phase-1 RCT-146 expression [1]: 0.9475
Phase-1 RCT-149 expression [1]: 0.6559
Phase-1 RCT-173 expression [1]: 0.5698
Phase-1 RCT-179 expression [1]: 1.528
Phase-1 RCT-207 expression [1]: 0.6995
Phase-1 RCT-211 expression [1]: 0.6151
Phase-1 RCT-227 expression [1]: 1.846
Phase-1 RCT-290 expression [1]: 0.417
Poly(ADP-ribose) polymerase expression [1]: 0.9896
Presenilin-1 expression [1]: 2.114
Protein tyrosine phosphatase, receptor type, D expression [1]: 1.295
Pyruvate kinase, muscle expression [1]: 0.6785
Ribosomal protein L13A expression [1]: 0.6452
Ribosomal protein S9 expression [1]: 1.161
Ribosomal protein S17 expression [1]: 1.358
Stathmin expression [1]: 0.7954
Stearyl-CoA desaturase, liver expression [1]: 0.1376
Thioredoxin-1 (Trx1) expression [1]: 0.7172
Thymosin beta-10 expression [1]: 0.6534
Tissue plasminogen activator expression [1]: 0.9708
Transitional endoplasmic reticulum ATPase expression [1]: 1.373
Ubiquitin conjugating enzyme (RAD 6 homologue) expression [1]: 1.177
Uncoupling protein 2 expression [1]: 0.7333
Zinc finger protein expression [1]: 1.116
alpha-1,2-fucosyltransferase expression [1]: 0.495
p55CDC expression [1]: 0.9757
{Phase-1 RCT 98} expression [1]: 1.16
{Ribosomal protein 16} expression [1]: 1.197
toxicity at the high dose (Sprague Dawley rats): produced toxicity
toxicity at the low dose (Sprague Dawley rats): not at the low dose
Liver Necrosis (Sprague Dawley rats; 50 mg/kg): no
Score (histopathology liver necrosis severity score) (Sprague Dawley rats; 50 mg/kg): 1
Liver Necrosis (Sprague Dawley rats; 150 mg/kg): Yes
Score (histopathology liver necrosis severity score) (Sprague Dawley rats; 150 mg/kg): 2

CC(=N)S [thioacetamide]
hepatocellular necrosis by histopathology (Male Sprague-Dawley rats): induced hepatocellular necrosis
